{
  "source": "patent US9884863B2",
  "about": "“STAT3 inhibitor” (Board of Regents, The University of Texas System, priority 2013, dated 2018)",
  "data": [
    {"units": {"melting point": "°C"}, "values": [
      {"smiles": "Cc1cccc(/C=C(\\C#N)C(=O)Nc2ccc3c(c2)S(=O)(=O)C=C3)n1", "note": "[HJC-5-88, 2-Cyano-N-(1,1-dioxo-1H-1λ^6-benzo[b]thiophen-6-yl)-3-(6-methyl-pyridin-2-yl)acrylamide]", "melting point": "221 to 222"},
      {"smiles": "N#C/C(=C\\c1cccc(Cl)c1)C(=O)Nc1ccc2c(c1)S(=O)(=O)C=C2", "note": "[HJC-5-89, 3-(3-Chlorophenyl)-2-cyano-N-(1,1-dioxo-1H-1λ^6-benzo[b]thiophen-6-yl)acrylamide]", "melting point": "234 to 235"},
      {"smiles": "N#C/C(=C\\c1ccccn1)C(=O)Nc1ccc2c(c1)S(=O)(=O)C=C2", "note": "[HJC-5-90, 2-Cyano-N-(1,1-dioxo-1H-1λ^6-benzo[b]thiophen-6-yl)-3-pyridin-2-yl-acrylamide]", "melting point": "234 to 235"},
      {"smiles": "N#C/C(=C\\c1c(F)cccc1F)C(=O)Nc1ccc2c(c1)S(=O)(=O)C=C2", "note": "[HJC-5-91, 2-Cyano-3-(2,6-difluorophenyl)-N-(1,1-dioxo-1H-1λ^6-benzo[b]thiophen-6-yl)acrylamide]", "melting point": "253 to 254"},
      {"smiles": "N#C/C(=C\\c1ccccc1Br)C(=O)Nc1ccc2c(c1)S(=O)(=O)C=C2", "note": "[RMF-1-7, 3-(2-Bromophenyl)-2-cyano-N-(1,1-dioxo-1H-1λ^6-benzo[b]thiophen-6-yl)acrylamide]", "melting point": "226 to 227"},
      {"smiles": "N#C/C(=C\\c1ccc(Br)cc1)C(=O)Nc1ccc2c(c1)S(=O)(=O)C=C2", "note": "[RMF-1-8, 3-(4-Bromophenyl)-2-cyano-N-(1,1-dioxo-1H-1λ^6-benzo[b]thiophen-6-yl)acrylamide]", "melting point": "289 to 290"},
      {"smiles": "N#C/C(=C\\c1ccccc1O)C(=O)Nc1ccc2c(c1)S(=O)(=O)C=C2", "note": "[RMF-1-9, 2-Cyano-N-(1,1-dioxo-1H-1λ^6-benzo[b]thiophen-6-yl)-3-(2-hydroxyphenyl)acrylamide]", "melting point": "284 to 285"},
      {"smiles": "N#C/C(=C\\c1cccc(O)c1)C(=O)Nc1ccc2c(c1)S(=O)(=O)C=C2", "note": "[RMF-1-10, 2-Cyano-N-(1,1-dioxo-1H-1λ^6-benzo[b]thiophen-6-yl)-3-(3-hydroxyphenyl)acrylamide]", "melting point": "262 to 263"},
      {"smiles": "N#C/C(=C\\c1ccc(O)cc1)C(=O)Nc1ccc2c(c1)S(=O)(=O)C=C2", "note": "[RMF-1-11, 2-Cyano-N-(1,1-dioxo-1H-1λ^6-benzo[b]thiophen-6-yl)-3-(4-hydroxyphenyl)acrylamide]", "melting point": "306 to 307"},
      {"smiles": "COc1ccccc1/C=C(\\C#N)C(=O)Nc1ccc2c(c1)S(=O)(=O)C=C2", "note": "[RMF-1-12, 2-Cyano-N-(1,1-dioxo-1H-1λ^6-benzo[b]thiophen-6-yl)-3-(2-methoxyphenyl)acrylamide]", "melting point": "223 to 224"},
      {"smiles": "COc1ccc(/C=C(\\C#N)C(=O)Nc2ccc3c(c2)S(=O)(=O)C=C3)cc1", "note": "[RMF-1-13, 2-Cyano-N-(1,1-dioxo-1H-1λ^6-benzo[b]thiophen-6-yl)-3-(4-methoxyphenyl)acrylamide]", "melting point": "275 to 276"},
      {"smiles": "Cc1cc(C)c(/C=C(\\C#N)C(=O)Nc2ccc3c(c2)S(=O)(=O)C=C3)c(C)c1", "note": "[RMF-1-14, 2-Cyano-N-(1,1-dioxo-1H-1λ^6-benzo[b]thiophen-6-yl)-3-(2,4,6-trimethylphenyl)acrylamide]", "melting point": "255 to 256"},
      {"smiles": "N#C/C(=C\\c1cccc([N+](=O)[O-])c1)C(=O)Nc1ccc2c(c1)S(=O)(=O)C=C2", "note": "[RMF-1-15, 2-Cyano-N-(1,1-dioxo-1H-1λ^6-benzo[b]thiophen-6-yl)-3-(3-nitrophenyl)acrylamide]", "melting point": "269 to 270"},
      {"smiles": "CN(C)c1ccc(/C=C(\\C#N)C(=O)Nc2ccc3c(c2)S(=O)(=O)C=C3)cc1", "note": "[RMF-1-16, 2-Cyano-3-(4-dimethylaminophenyl)-N-(1,1-dioxo-1H-1λ^6-benzo[b]thiophen-6-yl)acrylamide]", "melting point": "279 to 280"},
      {"smiles": "N#C/C(=C\\c1c[nH]c2ncccc12)C(=O)Nc1ccc2c(c1)S(=O)(=O)C=C2", "note": "[RMF-1-17, 2-Cyano-N-(1,1-dioxo-1H-1λ^6-benzo[b]thiophen-6-yl)-3-(1H-pyrrolo[2,3-b]pyridin-3-yl)acrylamide]", "melting point": "300 to 301"},
      {"smiles": "N#C/C(=C\\C1CCCCC1)C(=O)Nc1ccc2c(c1)S(=O)(=O)C=C2", "note": "[RMF-1-20, 2-Cyano-3-cyclohexyl-N-(1,1-dioxo-1H-1λ^6-benzo[b]thiophen-6-yl)acrylamide]", "melting point": "180 to 181"},
      {"smiles": "N#C/C(=C\\c1cccnc1)C(=O)Nc1ccc2c(c1)S(=O)(=O)C=C2", "note": "[RMF-1-22, 2-Cyano-N-(1,1-dioxo-1H-1λ^6-benzo[b]thiophen-6-yl)-3-pyridin-3-yl-acrylamide]", "melting point": "255 to 256"},
      {"smiles": "N#C/C(=C\\c1ccncc1)C(=O)Nc1ccc2c(c1)S(=O)(=O)C=C2", "note": "[RMF-1-23, 2-Cyano-N-(1,1-dioxo-1H-1λ^6-benzo[b]thiophen-6-yl)-3-pyridin-4-yl-acrylamide]", "melting point": "288 to 289"},
      {"smiles": "N#C/C(=C\\c1cccnc1F)C(=O)Nc1ccc2c(c1)S(=O)(=O)C=C2", "note": "[RMF-1-24, 2-Cyano-N-(1,1-dioxo-1H-1λ^6-benzo[b]thiophen-6-yl)-3-(2-fluoro-pyridin-3-yl)acrylamide]", "melting point": "262 to 263"},
      {"smiles": "N#C/C(=C\\c1cccnc1Cl)C(=O)Nc1ccc2c(c1)S(=O)(=O)C=C2", "note": "[RMF-1-25, 3-(2-Chloro-pyridin-3-yl)-2-cyano-N-(1,1-dioxo-1H-1λ^6-benzo[b]thiophen-6-yl)acrylamide]", "melting point": "251 to 252"},
      {"smiles": "N#C/C(=C\\c1cccnc1Br)C(=O)Nc1ccc2c(c1)S(=O)(=O)C=C2", "note": "[RMF-1-26, 3-(2-Bromopyridin-3-yl)-2-cyano-N-(1,1-dioxo-1H-1λ^6-benzo[b]thiophen-6-yl)acrylamide]", "melting point": "242 to 243"},
      {"smiles": "COc1ncccc1/C=C(\\C#N)C(=O)Nc1ccc2c(c1)S(=O)(=O)C=C2", "note": "[RMF-1-27, 2-Cyano-N-(1,1-dioxo-1H-1λ^6-benzo[b]thiophen-6-yl)-3-(2-methoxy-pyridin-3-yl)acrylamide]", "melting point": "261 to 262"},
      {"smiles": "COc1ccc(/C=C(\\C#N)C(=O)Nc2ccc3c(c2)S(=O)(=O)C=C3)cn1", "note": "[RMF-1-28, 2-Cyano-N-(1,1-dioxo-1H-1λ^6-benzo[b]thiophen-6-yl)-3-(6-methoxy-pyridin-3-yl)acrylamide]", "melting point": "255 to 256"},
      {"smiles": "N#C/C(=C\\c1ccc(F)cc1)C(=O)Nc1ccc2c(c1)S(=O)(=O)C=C2", "note": "[RMF-1-29, 2-Cyano-N-(1,1-dioxo-1H-1λ^6-benzo[b]thiophen-6-yl)-3-(4-fluorophenyl)acrylamide]", "melting point": "271 to 272"},
      {"smiles": "N#C/C(=C\\c1cccc(F)c1)C(=O)Nc1ccc2c(c1)S(=O)(=O)C=C2", "note": "[RMF-1-31, 2-Cyano-N-(1,1-dioxo-1H-1λ^6-benzo[b]thiophen-6-yl)-3-(3-fluorophenyl)acrylamide]", "melting point": "245 to 246"},
      {"smiles": "N#C/C(=C\\c1cccc(Br)c1)C(=O)Nc1ccc2c(c1)S(=O)(=O)C=C2", "note": "[RMF-1-32, 3-(3-Bromophenyl)-2-cyano-N-(1,1-dioxo-1H-1λ^6-benzo[b]thiophen-6-yl)acrylamide]", "melting point": "250 to 251"},
      {"smiles": "N#C/C(=C\\c1ccccc1Cl)C(=O)Nc1ccc2c(c1)S(=O)(=O)C=C2", "note": "[RMF-1-33, 3-(2-Chlorophenyl)-2-cyano-N-(1,1-dioxo-1H-1λ^6-benzo[b]thiophen-6-yl)acrylamide]", "melting point": "242 to 243"},
      {"smiles": "COc1cccc(/C=C(\\C#N)C(=O)Nc2ccc3c(c2)S(=O)(=O)C=C3)c1", "note": "[RMF-1-35, 2-Cyano-N-(1,1-dioxo-1H-1λ^6-benzo[b]thiophen-6-yl)-3-(3-methoxyphenyl)acrylamide]", "melting point": "245 to 246"},
      {"smiles": "N#C/C(=C\\c1ccccc1[N+](=O)[O-])C(=O)Nc1ccc2c(c1)S(=O)(=O)C=C2", "note": "[RMF-1-36, 2-Cyano-N-(1,1-dioxo-1H-1λ^6-benzo[b]thiophen-6-yl)-3-(2-nitrophenyl)acrylamide]", "melting point": "254 to 255"},
      {"smiles": "N#C/C(=C\\c1ccc([N+](=O)[O-])cc1)C(=O)Nc1ccc2c(c1)S(=O)(=O)C=C2", "note": "[RMF-1-37, 2-Cyano-N-(1,1-dioxo-1H-1λ^6-benzo[b]thiophen-6-yl)-3-(4-nitrophenyl)acrylamide]", "melting point": "272 to 273"},
      {"smiles": "COc1cc(/C=C(\\C#N)C(=O)Nc2ccc3c(c2)S(=O)(=O)C=C3)cc(OC)c1OC", "note": "[RMF-1-38, 2-Cyano-N-(1,1-dioxo-1H-1λ^6-benzo[b]thiophen-6-yl)-3-(3,4,5-trimethoxyphenyl)acrylamide]", "melting point": "224 to 225"}
    ]}
  ]
}
